Assay results taken from PubChem BioAssay AID256 (DTP/NCI, 2004).
“And” between values parts separate entries of the source, which are not always exact repeats. Equal entries are not always repeated. Inconclusive results and toxic doses are left out. Rule for the calls: active = survival T/C of 150% or more; inactive = T/C below 125% in these data.

Test system: CD2F1 mice, L1210 leukemia ip, survival T/C
Assay: NCI In Vivo Anticancer Drug Screen. Data for tumor model L1210 Leukemia (intraperitoneal) in CD2F1 (CDF1) mice
Settings: higher = longer survival
In short: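 Tumor-bearing mice (transplanted tumor) were split into treated and vehicle control groups, and the measured endpoint of each treated group was divided by that of its vehicle controls.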

[1] = endpoint: mean survival time, dose: 100.0 mg/kg/injection, schedule: Q04DX003 (ip), vehicle: saline with Tween-80
[2] = endpoint: mean survival time, dose: 200.0 mg/kg/injection, schedule: Q04DX003 (ip), vehicle: saline with Tween-80
[3] = endpoint: mean survival time, dose: 400.0 mg/kg/injection, schedule: Q04DX003 (ip), vehicle: saline with Tween-80
[4] = endpoint: mean survival time, dose: 25.0 mg/kg/injection, schedule: Q04DX003 (ip), vehicle: saline with Tween-80
[5] = endpoint: mean survival time, dose: 50.0 mg/kg/injection, schedule: Q04DX003 (ip), vehicle: saline with Tween-80

Measured: T/C

CCOC(=O)CC(C)(CC(=O)OCC)C(C#N)C(=O)OCC (centres undefined)
inactive: [1] 116 % of control | [2] 119 % of control | [3] 120 % of control

Cc1nc2c(c[n+]1C)CN1C=Nc3c(ncn3C3OC(CO)C(O)C3O)C1=N2 (centres undefined)
inactive: endpoint: median survival time, dose: 12.5 mg/kg/injection, schedule: Q01DX005 (ip), vehicle: saline 98 % of control | endpoint: median survival time, dose: 25.0 mg/kg/injection, schedule: Q01DX005 (ip), vehicle: saline 100 % of control | endpoint: median survival time, dose: 50.0 mg/kg/injection, schedule: Q01DX005 (ip), vehicle: saline 100 % of control | endpoint: median survival time, dose: 100.0 mg/kg/injection, schedule: Q01DX005 (ip), vehicle: saline 100 % of control | endpoint: median survival time, dose: 200.0 mg/kg/injection, schedule: Q01DX005 (ip), vehicle: saline 100 % of control

CCCCCCCCCCC(N)P(=O)(O)O (centres undefined)
inactive: [4] 91 % of control | [5] 91 % of control

CNC(Cc1ccccc1)c1ccccc1 (centres undefined)
inactive: [4] 91 % of control | [5] 93 % of control | [1] 95 % of control and 97 % of control

COC(=O)CC(N)C(=O)O (centres undefined)
inactive: endpoint: median survival time, dose: 6.25 mg/kg/injection, schedule: Q01DX009 (ip), vehicle: saline 100 % of control | endpoint: median survival time, dose: 12.5 mg/kg/injection, schedule: Q01DX009 (ip), vehicle: saline 97 % of control | endpoint: median survival time, dose: 25.0 mg/kg/injection, schedule: Q01DX009 (ip), vehicle: saline 98 % of control | endpoint: median survival time, dose: 50.0 mg/kg/injection, schedule: Q01DX009 (ip), vehicle: saline 94 % of control | endpoint: median survival time, dose: 100.0 mg/kg/injection, schedule: Q01DX009 (ip), vehicle: saline 98 % of control | endpoint: median survival time, dose: 200.0 mg/kg/injection, schedule: Q01DX009 (ip), vehicle: saline 97 % of control

C/C(=N\N=C(/C)c1cccc([N+](=O)[O-])c1)c1cccc([N+](=O)[O-])c1
inactive: endpoint: mean survival time, dose: 100.0 mg/kg/injection, schedule: Q04DX002 (ip), vehicle: Klucel (hydroxypropylcellulose) (HPC) 104 % of control | endpoint: mean survival time, dose: 200.0 mg/kg/injection, schedule: Q04DX002 (ip), vehicle: Klucel (hydroxypropylcellulose) (HPC) 97 % of control | endpoint: mean survival time, dose: 400.0 mg/kg/injection, schedule: Q04DX002 (ip), vehicle: Klucel (hydroxypropylcellulose) (HPC) 108 % of control

NC(=O)c1c2ccccc2nn1C1OC(CO)C(O)C1O (centres undefined)
inactive: endpoint: mean survival time, dose: 100.0 mg/kg/injection, schedule: Q01DX005 (ip), vehicle: saline 96 % of control | endpoint: mean survival time, dose: 200.0 mg/kg/injection, schedule: Q01DX005 (ip), vehicle: saline 102 % of control

Cc1ccc(Cl)c2nc(-c3ccccc3)ccc12
inactive: endpoint: mean survival time, dose: 37.5 mg/kg/injection, schedule: Q01DX009 (ip), vehicle: saline 105 % of control | endpoint: mean survival time, dose: 75.0 mg/kg/injection, schedule: Q01DX009 (ip), vehicle: saline 116 % of control | endpoint: mean survival time, dose: 75.0 mg/kg/injection, schedule: Q04DX003 (ip), vehicle: saline 112 % of control | endpoint: mean survival time, dose: 150.0 mg/kg/injection, schedule: Q01DX009 (ip), vehicle: saline 101 % of control | endpoint: mean survival time, dose: 150.0 mg/kg/injection, schedule: Q04DX003 (ip), vehicle: saline 103 % of control | endpoint: mean survival time, dose: 300.0 mg/kg/injection, schedule: Q04DX003 (ip), vehicle: saline 93 % of control

BrCC12CCC1(CBr)COC2 (centres undefined)
inactive: endpoint: mean survival time, dose: 100.0 mg/kg/injection, schedule: Q04DX003 (ip), vehicle: other 102 % of control | endpoint: mean survival time, dose: 200.0 mg/kg/injection, schedule: Q04DX003 (ip), vehicle: other 107 % of control | endpoint: mean survival time, dose: 400.0 mg/kg/injection, schedule: Q04DX003 (ip), vehicle: other 96 % of control

O=C(O)C1=C(C(=O)O)C2C3CC4C(C13)C42
inactive: [1] 101 % of control | [2] 100 % of control | [3] 88 % of control

O=c1ccn(Cc2cccc([N+](=O)[O-])c2)c(=O)[nH]1
inactive: endpoint: mean survival time, dose: 100.0 mg/kg/injection, schedule: Q01DX009 (ip), vehicle: saline with Tween-80 106 % of control | endpoint: mean survival time, dose: 200.0 mg/kg/injection, schedule: Q01DX009 (ip), vehicle: saline with Tween-80 104 % of control | endpoint: mean survival time, dose: 400.0 mg/kg/injection, schedule: Q01DX009 (ip), vehicle: saline with Tween-80 102 % of control
